Results published in paper PMC8699473, “An Easily Expandable Multi-Drug LC-MS Assay for the Simultaneous Quantification of 57 Oral Antitumor Drugs in Human Plasma” (Cancers, 2021).
Where “and” joins values, the source holds several entries; their conditions need not be identical. Identical values can stand only once. Like-named read-outs stand apart in the source and are kept apart here.

Experiments:
[1] = Plasma concentrations in patients on oral antitumor therapy (LC-MS); type: in vivo, human; settings: for Measured plasma concentration: 24 h, ±4 h of trough level: no
Description: The liquid chromatography-mass spectrometer system consisted of a Thermo Scientific Dionex UltiMate^TM 3000 with an integrated and temperature controlled autosampler (Thermo Fisher Scientific, Dreieich, Germany). An Acquity UPLC® BEH C18 column (2.1 × 100 mm, 1.7 µm; Waters, Milford, CT, USA) equipped with an Acquity UPLC® BEH C18 VanGuard^TM Pre-Column (2.1 × 5 mm, 1.7 µm; Waters, Milford, CT, USA) was used for chromatographic separation. The Q-Exactive^TM Focus mass spectrometer (MS) was hyphenated with a heated electrospray ionization (HESI) source (both from Thermo Fisher Scientific, Dreieich, Germany).
Chromatographic separation was achieved using a gradient elution with water containing 0.5% (v/v) FA (eluent A) and MeOH with 0.1% (v/v) FA (eluent B). The injection volume was 5 µL. The gradient program is shown in Supplement Table S2. The flow rate was 0.5 mL/min with a total run time of 15 min. The column heater was maintained at 50 °C and the autosampler temperature was 4 °C.
The following MS and HESI settings were maintained for all analyses: Sheath gas, auxiliary gas, and sweep gas flow rates were set to 60, 20, and 0, respectively. The spray voltage was 4000 V. Both capillary and auxiliary gas heater temperatures were set to 400 °C. High-purity nitrogen gas was used for the HESI source gases and for the bath gas of the C-trap. […] The HESI source was configured in positive mode for ionization.
The stock solutions were stored in glass vials at −80 °C. Aliquots of all stock solutions were combined in ACN (volumes of individual stock solution solvents are negligible) to obtain a standard solution of all analytes with an individual concentration of 200% of the respective trough level (cmin). Eight individual working standards were prepared by stepwise dilution of this standard solution with concentrations from 10 to 200% cmin (shown in Supplement Table S3). Furthermore, the four individual IS stock solutions were combined and diluted to 50 ng/mL with ACN. Calibration and validation standards were prepared by spiking 50 µL pooled human plasma with 10 µL of the respective working solution. Next, 250 µL IS solution (50 ng/mL in ACN) were added and vortexed vigorously. […] Then, 100 µL supernatant were transferred to 300 µL HPLC insert glass vials and diluted with 100 µL eluent (90% A/10% B). For blank samples, 50 µL pooled human plasma were combined with 10 µL ACN (instead of working solution) and prepared as described above. The calibration and validation standards were freshly prepared before every run. Patient plasma samples were prepared as calibration and validation standards (no additional processing step necessary), except for adding 10 µL ACN instead of 10 µL working standard. Before sample preparation, the frozen plasma samples were thawed in absence of light at 4 °C.
Blood samples were collected over the entire dosing interval from patients treated with an oral anticancer drug as listed in Supplement Table S4. […] A maximum of two samples at two different time points throughout the entire dosing interval were collected per patient. Treatment duration before collection was at least five half-lives (depending on the specific oral anticancer drug). The samples were collected in K3-EDTA tubes.
A total of 71 blood samples from 39 patients treated with 14 different oral anticancer drugs were collected (see Supplement Table S4 for details). All patients were recruited from independent outpatient clinics associated with the Comprehensive Cancer Center of the University Hospital Erlangen (CCC Erlangen-EMN). Of 71 blood samples, 41 were taken ±4 h of trough level (cmin).

[2] = Freeze-thaw stability in spiked pooled human plasma; type: physicochemical
[3] = Autosampler stability of ready for injection samples; type: physicochemical, human
[4] = design: method as in supplement references [1-55] as printed per drug; settings: minimum steady-state blood plasma concentration after multiple dose administration; ref supplement references [1-55] per drug; cited from earlier work
[5] = Long-term stability in spiked pooled human plasma
[6] = Short-term stability in spiked pooled human plasma (bench-top, 4 °C, 56 °C)
[7] = Reference trough level (cmin) at steady state; type: in vivo, human; settings: minimum steady-state plasma concentration, calculated based on cmax; ref supplement [7], [2,5,24], [51]
[8] = patient plasma, all samples, r.c. = respective cmin

C=CC(=O)Nc1cc(Nc2nccc(-c3cn(C)c4ccccc34)n2)c(OC)cc1N(C)CCN(C)C [Osimertinib]
Measured plasma concentration ([1]; 80 mg/day): 167.8 ng/mL | Min–Max Concentration [% of r.c.] [1, 8]: 101.1 % of r.c. | Freeze-Thaw Accuracy [%] ([2]; validation standard 2xLLOV): 93.7% | Freeze-Thaw Accuracy [%] ([2]; validation standard LLOV): 95.6% | Freeze-Thaw Accuracy [%] ([2]; validation standard MOV): 96.2% | Freeze-Thaw Accuracy [%] ([2]; validation standard ULOV): 92.7% | Autosampler (24h, 4°C) Accuracy [%] ([3]; validation standard 2xLLOV): 104.2% | Autosampler (72h, 4°C) Accuracy [%] ([3]; validation standard 2xLLOV): 99.1% | Autosampler (24h, 4°C) Accuracy [%] ([3]; validation standard LLOV): 90.3% | Autosampler (72h, 4°C) Accuracy [%] ([3]; validation standard LLOV): 91.2% | Autosampler (24h, 4°C) Accuracy [%] ([3]; validation standard MOV): 103.8% | Autosampler (72h, 4°C) Accuracy [%] ([3]; validation standard MOV): 100.3% | Autosampler (24h, 4°C) Accuracy [%] ([3]; validation standard ULOV): 98.4% | Autosampler (72h, 4°C) Accuracy [%] ([3]; validation standard ULOV): 99.1% | cmin [4]: 166 ng/mL | Long-term stability, 1 month, -20°C Accuracy [%] ([5]; validation standard 2xLLOV): 95.2% | Long-term stability, 1 month, -80°C Accuracy [%] ([5]; validation standard 2xLLOV): 93.2% | Long-term stability, 2 month, -20°C Accuracy [%] ([5]; validation standard 2xLLOV): 89.2% | Long-term stability, 2 month, -80°C Accuracy [%] ([5]; validation standard 2xLLOV): 103.9% | Long-term stability, 3 month, -20°C Accuracy [%] ([5]; validation standard 2xLLOV): 82.8% | Long-term stability, 3 month, -80°C Accuracy [%] ([5]; validation standard 2xLLOV): 100.0% | Long-term stability, 6 weeks, 4°C, without daylight Accuracy [%] ([5]; validation standard 2xLLOV): 10.5% | Long-term stability, 1 month, -20°C Accuracy [%] ([5]; validation standard LLOV): 83.0% | Long-term stability, 1 month, -80°C Accuracy [%] ([5]; validation standard LLOV): 86.9% | Long-term stability, 2 month, -20°C Accuracy [%] ([5]; validation standard LLOV): 84.8% | Long-term stability, 2 month, -80°C Accuracy [%] ([5]; validation standard LLOV): 96.9% | Long-term stability, 3 month, -20°C Accuracy [%] ([5]; validation standard LLOV): 66.7% | Long-term stability, 3 month, -80°C Accuracy [%] ([5]; validation standard LLOV): 91.8% | Long-term stability, 6 weeks, 4°C, without daylight Accuracy [%] ([5]; validation standard LLOV): 5.4% | Long-term stability, 1 month, -20°C Accuracy [%] ([5]; validation standard MOV): 97.0% | Long-term stability, 1 month, -80°C Accuracy [%] ([5]; validation standard MOV): 96.6% | Long-term stability, 2 month, -20°C Accuracy [%] ([5]; validation standard MOV): 95.2% | Long-term stability, 2 month, -80°C Accuracy [%] ([5]; validation standard MOV): 101.6% | Long-term stability, 3 month, -20°C Accuracy [%] ([5]; validation standard MOV): 90.9% | Long-term stability, 3 month, -80°C Accuracy [%] ([5]; validation standard MOV): 101.8% | Long-term stability, 6 weeks, 4°C, without daylight Accuracy [%] ([5]; validation standard MOV): 53.4% | Long-term stability, 1 month, -20°C Accuracy [%] ([5]; validation standard ULOV): 92.3% | Long-term stability, 1 month, -80°C Accuracy [%] ([5]; validation standard ULOV): 93.2% | Long-term stability, 2 month, -20°C Accuracy [%] ([5]; validation standard ULOV): 91.4% | Long-term stability, 2 month, -80°C Accuracy [%] ([5]; validation standard ULOV): 101.4% | Long-term stability, 3 month, -20°C Accuracy [%] ([5]; validation standard ULOV): 88.6% | Long-term stability, 3 month, -80°C Accuracy [%] ([5]; validation standard ULOV): 93.8% | Long-term stability, 6 weeks, 4°C, without daylight Accuracy [%] ([5]; validation standard ULOV): 41.5% | concentrations in short-term stability investigations ([6]; 24 h, room temperature, with or without light): 60.5–75.7% | Short-time stability (1h, 56°C) Accuracy [%] ([6]; validation standard 2xLLOV): 29.9% | Short-time stability (24h, 4°C, without daylight) Accuracy [%] ([6]; validation standard 2xLLOV): 95.8% | Short-time stability (24h, RT, with daylight) Accuracy [%] ([6]; validation standard 2xLLOV): 61.4% | Short-time stability (24h, RT, without daylight) Accuracy [%] ([6]; validation standard 2xLLOV): 61.7% | Short-time stability (1h, 56°C) Accuracy [%] ([6]; validation standard LLOV): 28.7% | Short-time stability (24h, 4°C, without daylight) Accuracy [%] ([6]; validation standard LLOV): 85.8% | Short-time stability (24h, RT, with daylight) Accuracy [%] ([6]; validation standard LLOV): 62.0% | Short-time stability (24h, RT, without daylight) Accuracy [%] ([6]; validation standard LLOV): 60.5% | Short-time stability (1h, 56°C) Accuracy [%] ([6]; validation standard MOV): 30.1% | Short-time stability (24h, 4°C, without daylight) Accuracy [%] ([6]; validation standard MOV): 96.3% | Short-time stability (24h, RT, with daylight) Accuracy [%] ([6]; validation standard MOV): 75.7% | Short-time stability (24h, RT, without daylight) Accuracy [%] ([6]; validation standard MOV): 72.0% | Short-time stability (1h, 56°C) Accuracy [%] ([6]; validation standard ULOV): 26.0% | Short-time stability (24h, 4°C, without daylight) Accuracy [%] ([6]; validation standard ULOV): 86.7% | Short-time stability (24h, RT, with daylight) Accuracy [%] ([6]; validation standard ULOV): 67.4% | Short-time stability (24h, RT, without daylight) Accuracy [%] ([6]; validation standard ULOV): 63.9%

C=CC(=O)N1CCC[C@@H](n2nc(-c3ccc(Oc4ccccc4)cc3)c3c(N)ncnc32)C1 [Ibrutinib]
Measured plasma concentration ([1]; 420 mg/day): 3.2 ng/mL and 4.2 ng/mL | Measured plasma concentration ([1]; 560 mg/day): 115.2 ng/mL and 139.5 ng/mL | Interpatient Coefficient of Variation [%] ([1]; patient plasma concentrations): 110.0% | Median Concentration of All Samples [% of r.c.] [1, 8]: 110.1 % of r.c. | Min–Max Concentration [% of r.c.] [1, 8]: 4.8–211.4 % of r.c. | cmin [7]: 66 ng/mL | Freeze-Thaw Accuracy [%] ([2]; validation standard 2xLLOV): 100.8% | Freeze-Thaw Accuracy [%] ([2]; validation standard LLOV): 100.2% | Freeze-Thaw Accuracy [%] ([2]; validation standard MOV): 93.3% | Freeze-Thaw Accuracy [%] ([2]; validation standard ULOV): 95.6% | Autosampler (24h, 4°C) Accuracy [%] ([3]; validation standard 2xLLOV): 101.4% | Autosampler (72h, 4°C) Accuracy [%] ([3]; validation standard 2xLLOV): 100.0% | Autosampler (24h, 4°C) Accuracy [%] ([3]; validation standard LLOV): 97.6% | Autosampler (72h, 4°C) Accuracy [%] ([3]; validation standard LLOV): 95.8% | Autosampler (24h, 4°C) Accuracy [%] ([3]; validation standard MOV): 103.0% | Autosampler (72h, 4°C) Accuracy [%] ([3]; validation standard MOV): 103.7% | Autosampler (24h, 4°C) Accuracy [%] ([3]; validation standard ULOV): 100.0% | Autosampler (72h, 4°C) Accuracy [%] ([3]; validation standard ULOV): 102.6%
